In ChEMBL document CHEMBL4373716, “Curcumin as tyrosine kinase inhibitor in cancer treatment” (Eur J Med Chem, 2019):
In brackets after ≈: the same amount, converted by molar mass.

How the values were obtained:
[1] = Aqueous solubility of the compound; type: physicochemical
[2] = Tmax in human at […], po after 3 months; type: ADME, organism-based; details: in vivo
[3] = Cmax in human at […], po after 3 months; type: ADME, organism-based; design: route oral; details: in vivo

solubility [1]: 1000 to 10000 µg/mL (≈ 2.71 to 27.1 mM)
Tmax [2]: 1 to 2 h
Cmax [3]: 1770 nM
SMILES: COc1cc(/C=C/C(=O)CC(=O)/C=C/c2ccc(O)c(OC)c2)ccc1O [CURCUMIN]
